Columns and labels:
[1] = target: T1, Vascular endothelial growth factor receptor 2 (Homo sapiens, UniProt P35968); assay: Inhibition of poly(Glu4-Tyr)peptide phosphorylation by recombinant VEGFR2 at 10 uM ATP and in presence of 5% mouse plasma
[2] = target: T1, Vascular endothelial growth factor receptor 2; assay: Inhibition of poly(Glu4-Tyr)peptide phosphorylation by recombinant VEGFR2 at 10 uM ATP
[3] = target: T1, Vascular endothelial growth factor receptor 2; assay: Inhibition of poly(Glu4-Tyr)peptide phosphorylation by recombinant VEGFR2 at 10 uM ATP and in presence of 100 uM glutathione

Measured: IC50

T1 sequence (P35968 whole entry): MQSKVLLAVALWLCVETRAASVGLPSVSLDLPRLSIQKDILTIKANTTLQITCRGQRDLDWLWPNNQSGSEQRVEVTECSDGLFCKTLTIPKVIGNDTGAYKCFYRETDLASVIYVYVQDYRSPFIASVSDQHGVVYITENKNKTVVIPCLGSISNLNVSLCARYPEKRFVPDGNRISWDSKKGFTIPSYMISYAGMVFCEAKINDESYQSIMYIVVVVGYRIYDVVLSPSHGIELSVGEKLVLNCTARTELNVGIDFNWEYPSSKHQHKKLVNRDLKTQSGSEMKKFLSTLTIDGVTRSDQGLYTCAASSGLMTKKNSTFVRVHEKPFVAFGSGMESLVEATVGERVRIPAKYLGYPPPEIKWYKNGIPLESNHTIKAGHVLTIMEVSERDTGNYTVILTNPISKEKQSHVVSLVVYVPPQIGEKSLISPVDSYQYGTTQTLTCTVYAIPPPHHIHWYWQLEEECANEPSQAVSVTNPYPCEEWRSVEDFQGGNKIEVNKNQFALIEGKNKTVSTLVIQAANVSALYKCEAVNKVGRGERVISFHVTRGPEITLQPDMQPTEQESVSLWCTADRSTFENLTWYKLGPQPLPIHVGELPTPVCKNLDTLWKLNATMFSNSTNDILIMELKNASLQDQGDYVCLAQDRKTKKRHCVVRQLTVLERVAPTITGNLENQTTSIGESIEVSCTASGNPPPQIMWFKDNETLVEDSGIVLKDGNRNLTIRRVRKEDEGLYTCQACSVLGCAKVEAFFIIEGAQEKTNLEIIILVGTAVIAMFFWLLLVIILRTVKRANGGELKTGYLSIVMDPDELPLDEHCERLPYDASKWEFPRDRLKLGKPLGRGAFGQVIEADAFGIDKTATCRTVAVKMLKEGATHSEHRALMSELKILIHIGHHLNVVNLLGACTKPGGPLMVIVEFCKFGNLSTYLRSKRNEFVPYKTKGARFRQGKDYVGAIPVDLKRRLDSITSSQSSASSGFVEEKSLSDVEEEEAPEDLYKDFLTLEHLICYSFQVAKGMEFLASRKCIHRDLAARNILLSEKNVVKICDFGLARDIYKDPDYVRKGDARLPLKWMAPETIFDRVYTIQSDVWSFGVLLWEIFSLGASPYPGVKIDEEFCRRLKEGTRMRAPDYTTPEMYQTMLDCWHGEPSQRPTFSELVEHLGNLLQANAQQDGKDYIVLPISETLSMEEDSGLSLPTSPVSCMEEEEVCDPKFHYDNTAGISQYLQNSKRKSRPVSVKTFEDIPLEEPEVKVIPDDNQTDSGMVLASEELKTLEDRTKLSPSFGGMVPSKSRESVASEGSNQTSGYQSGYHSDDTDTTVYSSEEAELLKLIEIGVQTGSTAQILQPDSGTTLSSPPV

COCCOc1cc2ncnc(N=C3C(=O)C(OC)=CC(=O)C3Sc3ccccn3)c2cc1OC (stereo not drawn) [5-methoxy-3-{[6-methoxy-7-(2-methoxyethoxy)quinazolin-4-yl]amino}-2-(pyridin-2-ylthio)benzo-1,4-quinone]
> 1000 nM: [1] | [2] | [3]

From BindingDB's records for doi:10.1021/jm050559f (Wyeth Research, 2005)
